A short description of experiment [1]: DPPH radical scavenging assay. As to conditions: for Mean IC50 for scavenging initial DPPH radicals: mean ± SD of three replicates; for IC50: mean ± SD, converted from mg/mL, read-out: Mean IC50 for scavenging initial DPPH radicals (converted). Type of experiment: biochemical. The method, boiled down: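 Ethanolic DPPH mixed 1:1 with test compound, BHT as reference antioxidant, incubated 1 h at room temperature in darkness. Residual DPPH absorbance read at 519 nm against a no-compound control; scavenging % = (1 − Acompound/AControl) × 100, from three independent triplicate measurements.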

The subject of a further experiment is caspase-3 gene. In words: qRT-PCR expressional level of caspase-3 gene. Type of experiment: cell-based, human. As to conditions: 10 µg/mL, 24 h. The method, then:
Therefore, in this study the expressional levels of caspase-3 as a major apoptosis effector were evaluated in 3a- and 3f-treated HCT-116 and LoVo cell cultures (10 µg/mL, for 24 h incubation), using qRT-PCR analysis.
Briefly, in a 25 mL flask (1 × 10^6 cells/flask), the human colon cancer cell lines (HCT-116 and LoVo) were grown for 24 h. After replacing the culture media with a medium containing 1% FBS for 24 h, the cells were treated with 10 µg/mL of each tested compound in 2 mL of fresh medium containing 1% FBS, or 0.25% DMSO, which was used as the negative control. The cells were adherent cells and they were detached using trypsin after being washed with ice-cold phosphate-buffered saline (PBS).
Primers specific for the Bax, Bcl-2 and Caspase-3 genes were designed using the primer blast (https://www.ncbi.nlm.nih.gov/tools/primer-blast/ accessed on 9 January 2023) software. The primers were used in the RT-qPCR analysis to amplify fragments of 100–200 bp in length (Table 11).
The RNeasy Mini Kit (Qiagen, Hilden, Germany) was used to extract the total RNA. The RNA purity, quality and quantity were checked using a Nanodrop 8000 spectrophotometer (Thermo Fisher Scientific, USA). The Hyperscript Kit (GeneAll, Seoul, Korea) and random hexamers (GeneAll, Seoul, Korea ) were used to reverse-transcript 1 µg of RNA from each sample into cDNA as described in the manufacturer’s protocol.
A QuantStudio 7Flex Detection System (Applied Biosystems, Thermo Fischer Scientific, Inc., USA) was used to measure the mRNA expression of Bax, Caspase-3 and Bcl-2. The reactions for the synthesis of cDNA were carried out using an iScript One-Step RT-PCR Kit with SYBR Green (cat no: 170–8892; Bio-Rad, Inc., Hercules, CA, USA). Briefly, primers (Table 10) were added to the reaction mixture at a final concentration of 10 pM. Thus, 5 µL of each cDNA sample were added to a […] PCR mixture consisting of 12.5 µL of 2 × iScript One-Step RT-PCR Kit with SYBR Green, 0.5 µL of primers for Bax, Caspase-3 and Bcl-2 as well as GAPDH (Macrogen, Seoul, Korea), and 7 µL RNase/DNase-free water (Qiagen, DE). The thermal cycling conditions for Bax, Caspase-3 and Bcl-2 were established as 5 min at 95 °C, followed by 40 cycles of 30 s at 95 °C and 30 s at 60 °C, and finally 10 s at 95 °C. The presence of a single melting temperature peak verified the specificity of each primer. The expression of a house-keeping gene, GAPDH, was used as an endogenous control for the current work.
A general note: In qPCR the cycle at which signal appears reflects the starting amount.

For `O=c1c2cc(Cl)ccc2[nH]c(=S)n1-c1ccc([N+](=O)[O-])cc1` [Compound 3f, 6-Chloro-3-(4-nitro-phenyl)-2-thioxo-2,3-dihydro-1H-quinazolin-4-one], in experiment [1], the “Mean IC50 for scavenging initial DPPH radicals” value turned out to be 227 ± 10 µg/mL and the IC50 is 680 µM. Further, in the experiment on caspase-3 gene (HCT-116, vs negative control), the “Expression level of caspase-3 gene (upregulated)” value (from here on “Expression level”) amounted to 6.071 fold. For the same compound, the “Expression level” value in the experiment on caspase-3 gene (LoVo, vs negative control) was found to be 6.9340 fold.
Turning to `O=c1c2cc(Cl)ccc2[nH]c(=S)n1-c1cccc(C(F)(F)F)c1` [Compound 3a, 6-Chloro-2-thioxo-3-(3-trifluoromethyl-phenyl)-2,3-dihydro-1H-quinazolin-4-one], in experiment [1], the “Mean IC50 for scavenging initial DPPH radicals” value came to 68 ± 4 µg/mL and the IC50 was 191 µM. For the same compound, the “Expression level” value in the experiment with caspase-3 gene (HCT-116, vs negative control) is 3.731 fold. The “Expression level” value with caspase-3 gene (LoVo, vs negative control) was found to be 2.6026 fold.

As a reminder, the IC50 is the concentration at which inhibition is half-maximal.

The values are drawn from PMC10610505, “Synthesis and Biological Evaluation of Some New 3-Aryl-2-thioxo-2,3-dihydroquinazolin-4(1H)-ones and 3-Aryl-2-(benzylthio)quinazolin-4(3H)-ones as Antioxidants; COX-2, LDHA, α-Glucosidase and α-Amylase Inhibitors; and Anti-Colon Carcinoma and Apoptosis-Inducing Agents” (Pharmaceuticals, 2023).
